Assay results as given in a melting point compilation (Tetko et al.; mined from patent text by program, amines drawn as free bases though some values may be those of a salt).

Row | SMILES | melting point
1 | N#Cc1ccc(Oc2ccc(CBr)cc2)cc1C#N | 101 to 102 °C
2 | CCCC1(S(=O)(=O)CCCN2CCC(N3Cc4ccccc4C3=O)CC2)c2ccccc2-c2ccccc21 | 83 to 86 °C
3 | NC(CS(=O)(=O)c1ccccc1)=NNC(=O)c1cc2ccccc2o1 | 205 to 220 °C
4 | CS(=O)c1ccccc1C(=O)Nc1ccccc1 (stereo unspecified) | 194 to 195 °C
5 | O=C(c1ccc2nc(C3CC3)n(Cc3ccccc3Cl)c2c1)N1CCOCC1 | 193 to 195 °C
6 | CCOC(=O)NN=C(C)c1cccc(C(F)(F)F)c1 | 94 to 96 °C
7 | O=C(c1c[nH]c(C(=O)CCl)c1)c1ccc2ccccc2c1 | 175 to 177 °C
8 | CCCNC(=O)C1(CCCN2CCC(N3Cc4ccccc4C3=O)CC2)c2ccccc2-c2ccccc21 | 136 to 138 °C
9 | CC1(C)CC(OC(=O)NN)CC(C)(C)N1 | 93 to 94 °C
10 | Cn1c(=O)c2c(ncn2C(=O)CCC(=O)n2cnc3c2c(=O)n(C)c(=O)n3C)n(C)c1=O | 266 °C
11 | CC(=O)NNC(=N)CCCCn1cnc(NC(N)=NCC(F)(F)F)n1 | 157 to 159 °C
12 | CCCCOC(=O)NS(=O)(=O)c1ccccc1-c1ccc(Cn2c(CCC)nc(SC)c2C(=O)O)cc1 | 202 to 204 °C
13 | CCOP(=O)(OCC)Oc1cc2c(c3ccccc13)Nc1ccccc1S2 | 162 to 163 °C
14 | NC(=O)N(O)CC=Cc1ccccc1Sc1ccc(Cl)cc1 | 126 to 128 °C
15 | COc1ccc(-c2coc3ccc(-c4nnc(SCc5ccc(OC)c(C(F)(F)F)c5)o4)cc23)cc1 | 162 to 163 °C
16 | COC(=O)c1cnc2c3cc(NC(=O)CCC4CCCC4)ccc3ncn2c1=O | 244 to 247 °C
17 | CC(c1ccccc1)N1C(=O)NC(=O)C1O (stereo unspecified) | 139 to 140 °C
18 | COC(=O)CC(NCCN(C)C)C(=O)O (stereo unspecified) | 164 to 166 °C
19 | CCCCS(=O)(=O)Nc1ccc(Oc2cccc3cccnc23)cc1 | 162 °C
20 | CCNC(=O)c1cc(NS(=O)(=O)c2ccc(I)cc2)ccc1Oc1cncc(Cl)c1 | 154 to 156 °C
21 | CC1=C(c2ccccc2)C(c2ccccc2OCc2ccccc2)C([N+](=O)[O-])=C(C)N1 (stereo unspecified) | 189 °C
22 | CC(=O)Nc1occ(C(C)(C)C)c1C#N | 135 °C

Row | SMILES | melting point
23 | CC(C)(C)OC(=O)Cn1c(C(=O)OCc2ccccc2)cc2ccccc21 | 95 to 96 °C
24 | CCCCNC(=O)[C@@H](C[C@H](O)[C@H](CC1CCCCC1)NC(=O)[C@H](Cc1cscn1)NC(=O)[C@@H](CC(=O)N1CCOCC1)Cc1ccccc1)C(C)C | 161 to 163 °C
25 | N#CCNC(=O)c1ccc(Cl)cc1 | 185 °C
26 | C[C@H]1CN(c2ccccn2)[C@@H](C)CN1C1=c2ccccc2=NCN1c1ccccc1 (relative stereo) | 68 to 70 °C
27 | CCOC(=O)Cn1nc2ccc(NCCCN3CCC(OC(c4ccccc4)c4ccccc4)CC3)nn2c1=O | 137 to 139 °C
28 | Cc1nc2c(N)nc3ccccc3c2n1CCCNC(=O)C1CCCCC1 | 234 to 235 °C
29 | CC(CCC(=O)O)C1CCC2C3C(O)CC4CC(O[Si](C)(C)C(C)(C)C)CCC4(C)C3CC(O)C12C (stereo unspecified) | 146 °C
30 | N#CC(=Cc1ccc2c(c1)OCCO2)c1cccnc1 | 158 to 159 °C
31 | Cc1nc2cnccc2n1-c1ccc(CCO)cc1 | 196 to 198 °C
32 | CCOc1cc(-n2nc(C(=O)O)cc2-c2ccc(-c3ccco3)cc2)ccc1S(C)(=O)=O | 256 to 257 °C
33 | Cc1cccc(CC(=O)O)c1OCCCc1cn(-c2ccc(C(F)(F)F)cn2)nc1C(C)(C)C | 86 to 87 °C
34 | N#CC(=NNc1ccc(C(=O)O)cc1)C(N)=C(C#N)C#N | > 300 °C
35 | OC[C@@H]1Cc2ccccc2CN1C(=S)Nc1cccnc1 | 192 °C
36 | COc1cc2c(cc1CNC1CCCNC1c1ccccc1)N(C)C(=O)CC2(C)C (stereo unspecified) | > 280 °C
37 | CCOc1c2ccccc2c(C=O)c2ccccc12 | 88 to 90 °C
38 | CCCc1c(OCCCCCNC(=O)NCCCCc2cccnc2)ccc(C(C)=O)c1O | 73 to 76 °C
39 | CCOCC(=O)SSc1ccc([N+](=O)[O-])cc1C(Cl)(Cl)Cl | 89 °C
40 | C[C@@H](c1ccc(Br)cc1)N(CC[C@](O)(CC(C)(C)O)c1ccccc1)C(=O)Oc1ccccc1 | 129 to 131 °C
41 | CCC1NCCc2ccc(NC(=N)c3cccs3)cc21 (stereo unspecified) | 142 to 144 °C
42 | O=S(=O)(Cc1ccc(C(O)c2ccc(Cl)cc2)cc1)C(F)(F)F (stereo unspecified) | 113 to 115 °C
43 | COc1ccc(NC(=O)CCCn2nnnc2C)cc1 | 132 to 134 °C
44 | CCOc1cc(Cc2cnc(N)nc2N)cc(OCC)c1C(C)=O | 229 to 231 °C

Row | SMILES | melting point
45 | Cc1ccc(-c2cc(C(=O)O)nn2Cc2ccc(F)cc2)cc1C | 141 °C
46 | CCCCC(C)(CC)C(=O)C(Oc1ccc(-c2ccccc2)cc1)n1cnnc1 (stereo unspecified) | 67 to 68 °C
47 | ON=c1c2nccc3cccc(c32)n2cccc12 | 254 °C
48 | CC(C)(C)OC(=O)c1ccc(C#Cc2cnc3nc(N)nc(O)c3c2)cc1 | > 260 °C
49 | CNC(=O)CCSCc1csc(NC(N)=NCC(F)(F)F)n1 | 152 to 154 °C
50 | O=CN(Cc1ccccn1)C1(c2ccc(-c3ccccc3)cc2)CCC1 | 101 °C
51 | NS(=O)(=O)c1ccc(-n2nc(CCNC(=O)Nc3cccc(C(F)(F)F)c3)cc2-c2ccccc2)cc1 | 122 to 125 °C
52 | CCCC(=O)Nc1cc(/C=C/C(=O)OC)n(C)c1 | 109 to 110 °C
53 | COc1ccc(C2OCCN2CCNc2ccc(NCCN3CCOC3c3ccc(OC)cc3OC)c3c2C(=O)c2c(O)ccc(O)c2C3=O)c(OC)c1 (stereo unspecified) | 181 to 185 °C
54 | Cc1ccc(OCCOc2cccc(C)c2)cc1 | 94 °C
55 | Nc1ncnc2c1c(-c1cc(O)cc(F)c1)nn2Cc1oc2ccc(F)cc2c(=O)c1-c1cccc(F)c1 | 127 to 129 °C
56 | Cc1nnc(Sc2nc3cc(C(=O)c4ccccc4)ccc3nc2C(F)(F)F)s1 | 176 to 179 °C
57 | COc1ccc(-c2ccc3c(c2)c2c(C=Cc4ccccc4)ccnc2n3S(=O)(=O)c2ccccc2)cc1 | 190 to 192 °C
58 | COc1cccc2c1C1(COc3cc4c(cc31)OCO4)C(=O)N2Cc1ccc(C(F)(F)F)o1 (stereo unspecified) | 149 to 153 °C
59 | COc1cncc2nc(SCc3ccccc3)nn12 | 114 to 116 °C
60 | COC(=O)c1ccc(OCCCNC(=O)C[C@H]2O[C@H](c3cccc(OC)c3OC)c3cc(Cl)ccc3N(CC(C)(C)CO)C2=O)cc1 | 147 to 149 °C
61 | c1cc2c3c(c[nH]c3c1)CC1NCCCC21 (stereo unspecified) | 170 to 173 °C
62 | NCc1cccc(OCCC2Oc3ccccc3N(Cc3cccc(Cl)c3)C2=O)c1 (stereo unspecified) | 124 to 129 °C
63 | CCOC(=O)CNC(=O)COc1ccc(CCl)cc1 | 88.5 to 90.5 °C
64 | COc1cc(NC(=O)Nc2ccc(C3=CCN(C(=O)Nc4ccc(OCC(O)CO)cc4Cl)CC3)cc2)cc(OC)c1 (stereo unspecified) | 108 to 111 °C
65 | c1ccc(N(c2ccccc2)c2ccc3c4c(cccc24)CC3)cc1 | 168 to 170 °C
66 | O=C(O)Cc1nn(-c2nc3ccccc3s2)c(=O)c2ccccc12 | 205 °C

Continued, values first:

Row | melting point | SMILES
67 | > 300 °C | Cc1cccc2c1CCC2=NNC(=N)N
68 | 94 to 96 °C | O=C(O)C1Cc2cc(-c3ccc(Cl)cc3)ccc2O1 (stereo unspecified)
69 | 150 to 153 °C | COc1cc2c(cc1Cl)CCOC2c1ccc([N+](=O)[O-])cc1 (stereo unspecified)
70 | 168 °C | Nc1ncc(-c2ccc(C(F)(F)F)cc2)cc1C(F)(F)F
71 | 262 °C | O=c1ncc(Cl)cn1CS(=O)c1ccc(Cl)cc1 (stereo unspecified)
72 | 122 to 124 °C | COc1ccc(F)c(C(N)=O)c1
73 | 231 to 232 °C | CN1C(=O)CCC(C(=O)O)C1c1ccc2c(c1)OCO2 (stereo unspecified)
74 | 174 to 175 °C | Cc1ccc2c(c1)CC(N1CCN(CCN3CCOC3=O)CC1)c1cc(Cl)ccc1S2 (stereo unspecified)
75 | 41 to 43 °C | O=C(O)CCCCCCC1=CCCC1=O
76 | 112 to 115 °C | O=C(O)c1ccc(CCCC2SCC(=O)N2CC#CC2(O)CCCCC2)cc1 (stereo unspecified)
77 | 250 to 251 °C | NC(=O)c1cc2cc(Cl)ccc2nc1N
78 | 165 to 166 °C | CC(C)(C)c1ccc(N2CCOCC2)c(N)c1
79 | 182 to 184 °C | NS(=O)(=O)c1nc(-c2cccc(Cl)c2)ns1
80 | 121 to 124 °C | CN(NC=C1CSc2ccc(Cl)cc2C1=O)C(=O)OC(C)(C)C
81 | 140 to 143 °C | Clc1nccc(Nc2cnc3ccccc3c2)n1
82 | 88 to 90 °C | CS(=O)(=O)On1nnc2ccccc21
83 | 208 °C | Cc1ccc2c(c1)C(c1ccccc1Cl)C(=O)N2 (stereo unspecified)
84 | 80 to 82 °C | COc1ccc(C2(C#Cc3csc(C(=O)O)c3)CCC(=O)CC2)cc1OC1CCCC1

Row | melting point | SMILES
85 | 120 °C | COC(=O)C(C)Oc1ccc(N(C)c2nc3cc(Cl)ccc3s2)cc1 (stereo unspecified)
86 | 155 to 156 °C | O=c1oc2ccc(-c3ccc(F)cc3F)cc2c(=O)n1-c1ccc(F)cc1F
87 | 216 to 217 °C | Cc1nc(NC(=O)c2ccccc2)sc1C(=O)NCc1cccc(F)c1
88 | 309 to 310 °C | Cc1cc(-c2ccc3c(c2)c2cc(-c4ccc(Cl)cc4Cl)c(=O)n(C)c2n3C)[nH]n1
89 | 61 to 66 °C | O=C1CCSc2cc(F)ccc21
90 | 83 to 85 °C | O=c1[nH]c2ccccc2n1CCNCc1ccc(CN2CCCCC2)o1
91 | 215 to 216 °C | C#Cc1cccc(NC(=O)c2cc(-c3ccc(F)cc3F)ccc2O)c1
92 | 204 to 206 °C | CCOC(=O)c1ccc(C=C2C(=O)COC2=O)s1
93 | 91 °C | CCC1Oc2ccc(Br)cc2N(CC(O)CO)C1=O (stereo unspecified)
94 | 94 to 95 °C | COC(=O)c1ccc(SC)c(-c2cc(C)no2)c1C
95 | 200 to 201 °C | COC(=O)c1ccc2ncc(C3CCN(C)CC3)c-2[nH]1
96 | 126 °C | O=[N+]([O-])c1c(Cl)cccc1NCC(O)CO (stereo unspecified)
97 | 188 to 189 °C | Cc1c2c(cc3c(-c4ccccc4F)noc13)CC(C(=O)O)O2 (stereo unspecified)
98 | 218 to 220 °C | Brc1c(NC2=NCCN2)ccc2c1NCCN2
99 | 148 to 149 °C | O=C(Nc1ccc(SC(F)(F)F)c(Cl)c1)c1cc(Cl)c2ccccc2c1O
100 | 146 °C | COc1c(Cl)cc(-c2cc(F)c(F)cc2-c2ccc(S(N)(=O)=O)cc2)cc1Cl
101 | 190 to 191 °C | N#Cc1cc2sccc2nc1I
